In BigSolDB 2.1:

Oc1ccc(/C=C/c2cc(O)cc(O)c2)cc1
solubility (mole fraction)
Settings	288.15 K	293.15 K	298.15 K	303.15 K	308.15 K	313.15 K
in transcutol	0.148	0.15	0.153	0.156	0.159	0.161
in water	1.29e-06	1.91e-06	2.78e-06	4e-06	5.74e-06	8.03e-06
